From patent publication US11633380B2, “Use of trans-[tetrachlorobis(1H-indazole)ruthenate(III)] for the treatment of cancer” (Bold Therapeutics, Inc., priority 2016, dated 2023)

Columns and labels:
[1] = tested on: GRP78; test: GRP78 protein level by western blot in cell lines, unstressed or thapsigargin-stressed (Example 1); type: cell-based, human; conditions: IT-139 200 μM, 16 hours
Procedure: Example 1. All human primary and metastatic cell lines were maintained as described by ATCC. Cells were seeded in a 6 well plate prior to treatment with media alone (control), IT-139 (200 μM) alone, thapsigargin alone (300 nM, to induce cell stress) or IT-139 plus thapsigargin. Cell lysates were collected at 16 hours and were analyzed by western blot for anti-GRP78 antibody and normalized by GAPDH.

[2] = tested on: GRP78 mRNA; test: Quantitative real-time PCR of GRP78 transcripts in cell lines (Example 2); type: cell-based, human; conditions: IT-139 200 μM, 24 hours
Procedure: Example 2. All human primary and metastatic cell lines were maintained as described by ATCC. Cells were seeded in a 6 well plate prior to treatment with media alone (control), IT-139 (200 μM) alone, thapsigargin alone (300 nM, to induce cell stress) or IT-139 plus thapsigargin. Cell lysates were collected at 24 hours and total RNA was extracted. Quantitative real-time PCR analysis of GRP78 transcripts normalized to GAPDH.

[3] = tested on: CT26 cells; test: CT26 subcutaneous syngeneic tumor model (Example 3); type: in vivo, mice; conditions: twice weekly, four doses; IT-139 30 mg/kg intravenously, RPM1-14 5 mg/kg intraperitoneally; through day 18
Procedure: Example 3. CT26 cells (1 million) were subcutaneously implanted in immunocompetent mice and allowed to grow until a palpable tumor was established (day 3). Groups of four mice per group were treated twice weekly with four total doses of either 1) saline, 2) IT-139 alone (KP1339, 30 mg/kg), 3) RPM1-14 (PD-1 antibody, 5 mg/kg), or 4) RPM1-14 and IT-139 (5 mg/kg and 30 mg/kg, respectively). IT-139 was administered intravenously and RPM1-14 was administered intraperitoneally. Administrations were made on the same day. Tumor volume was measured through day 18.

[4] = tested on: HCT116 cells; test: Electron microscopic evaluation of HCT116 cells (Example 4); type: cell-based, human; conditions: IT-139 200 μM, 24 hours, versus untreated cells
Procedure: Example 4. HCT116 cell line was seeded one day prior to treatment according to ATCC guidelines. 24 hours after treatment with IT-139 (200 μM), treated and untreated cells were fixed for electron microscopic evaluation.

[5] = tested on: Pol II promoter; test: ChIP assay, Polymerase II binding to Pol II promoter in HCT116 cells (Example 5); type: cell-based, human; conditions: 200 μM IT-139, 16 hours
Procedure: (§1) Example 5. Chromatin immunoprecipitation (ChIP) assay was performed to examine Polymerase II binding to Pol II and GRP78 promoter regions in stressed and unstressed cells with IT-139 treatment. HCT116 cells were grown to 80% confluence then treated with 1.5 μg/mL tunicamycin and 200 μM IT-139 or DMSO for 16 hours. Chromatin was cross-linked using formaldehyde. Cells were harvested with trypsin and isolated nuclei were sonicated to yield fragments between 200-1000 bp. Equal amounts of chromatin were incubated with anti-Pol II antibody overnight then pulled down with Staph A cells. Cross-linking was reversed and the DNA was purified using a GeneElute PCR cleanup kit from Sigma. Purified DNA and input samples were subjected to 30 cycles of PCR with primers amplifying promoter regions of Grp78 and Pol II. The products were run on a 4% agarose gel and visualized with ethidium bromide staining. […] Strikingly, IT-139 dropped Polymerase II binding to the Grp78 promoter to zero in both non-stressed and Tu-stressed cells.

[6] = tested on: Grp78 promoter; test: ChIP assay, Polymerase II binding to Grp78 promoter in HCT116 cells (Example 5); type: cell-based, human; conditions: 200 μM IT-139, 16 hours
Procedure: as §1

[7] = tested on: GRP78; test: Immunohistochemical analysis of GRP78 in HT-29 xenograft tumors (Example 6); type: in vivo; conditions: IT-139 30 mg/kg (q4d), versus strong immunostaining in saline treated tumors
Procedure: Example 6. Immunohistochemical analysis was performed to analyze the expression of GRP78 in HT-29 xenograft tumors treated with IT-139 at 30 mg/kg (q4d) in comparison to saline treated tumors.

[8] = tested on: GRP78; test: GRP78 levels by western blot in normal embryonic kidney 293T cells (Example 7); type: cell-based, human
Procedure: Example 7. Normal human embryonic kidney 293T cells were either non-stressed (treated with normal media) or stressed (treated with 300 nM EndRet stress & GRP78 inducer Thapsigargin). Cell cultures were either treated with no drug (control) or 200 μM IT-139. GRP78 levels assayed by western blot; β-actin is loading control.

[9] = tested on: GRP78 mRNA; test: Northern blot of GRP78 mRNA in LnCaP-FGC cells (Example 8); type: cell-based, human; conditions: untreated or 300 nM thapsigargin, indicated concentrations of IT-139
Procedure: Example 8. Prostate cancer LnCaP-FGC cells were untreated (DMSO only control) or treated with 300 nM thapsigargin (Tg). Cells were co-incubated with the indicated concentrations of IT-139 and Northern blot analysis was performed on cell lysates. β-actin is the loading control.

[10] = tested on: HCT116; test: Mitochondrial potential, JC-1 flow cytometry, HCT116 (Example 9); type: cell-based, human; conditions: HCT116, 50 μM IT-139, 24 h
Procedure: (§2) Example 9. All human primary and metastatic cell lines were maintained as described by ATCC. All cell lines (HCT116, HT-29, LNCaP, A549 and A375) were seeded in a 6 well plate 24 hours prior to treatment with IT-139 alone. All cell lines were treated with 30 uM, 50 uM, 100 uM and 200 uM with the following exceptions: treatment with 30 uM and 200 uM were omitted for HCT116 and HT29 cell lines respectively. After 24 h incubation with the drug, cells were trypsinized and re-suspended in warm PBS and stained with the JC-1 dye for 30 min at 37 C in the dark. The cells were then washed and re-suspended in warm PBS. The fluorescence of the JC-1 dye was measured by flow cytometry analysis by exciting the dye at 488 nm and detecting the JC-1 monomer through its emission at 530 nm with aggregates of JC-1 being measured at 580 nm. All cell lines treated with Antimycin A at 50 uM as positive control.

[11] = tested on: HT29; test: Mitochondrial potential, JC-1 flow cytometry, HT29 (Example 9); type: cell-based, human; conditions: HT29, 30 μM IT-139, 24 h
Procedure: as §2

[12] = tested on: LNCaP; test: Mitochondrial potential, JC-1 flow cytometry, LNCaP (Example 9); type: cell-based, human; conditions: prostate (LNCaP), 30-200 uM IT-139, 24 h
Procedure: as §2

[13] = tested on: A549; test: Mitochondrial potential, JC-1 flow cytometry, A549 (Example 9); type: cell-based, human; conditions: lung (A549), 30-200 uM IT-139, 24 h
Procedure: as §2

[14] = tested on: A375; test: Mitochondrial potential, JC-1 flow cytometry, A375 (Example 9); type: cell-based, human; conditions: melanoma (A375), 30-200 uM IT-139, 24 h
Procedure: as §2

[15] = tested on: normal peripheral blood mononuclear cells (PBMCs); test: Cell viability, MiaPaca2 cells co-cultured with normal PBMCs (Example 10); type: cell-based; conditions: IT-139 50, 100 and 200 μM, 24 h, co-culture with normal PBMCs
Procedure: Example 10. […] cancer cell line, MiaPaca2, was maintained as described by ATCC. […] […] PBMCs were activated using 6000 IU of IL-2 for 24 h.

[16] = tested on: MiaPaca2 cells; test: Cell death of MiaPaca2 cells co-cultured with IL-2 activated PBMCs (Example 10); type: cell-based; conditions: pre-treated with IT-139 100 μM, co-cultured with PBMCs activated with 6000 IU IL-2 for 24 h
Procedure: Example 10. […] cancer cell line, MiaPaca2, was maintained as described by ATCC. […] MiaPaca2 cells were either untreated or pre-treated with IT-139 (100 μM) and co-cultured with IL-2 activated PBMCs at varying doses. PBMCs were activated using 6000 IU of IL-2 for 24 h.

[17] = tested on: GRP78; test: GRP78 expression in ASPC20 cells, order of dosing thapsigargin and IT-139 (Example 11); type: cell-based; conditions: 30 hours
Procedure: FIG. 12 depicts expression of GRP78 protein levels treated with DMSO; 150 μM IT-139; 1 μM Thapsigargin (Tg); simultaneous treatment of 150 μM IT-139 and 1 μM Tg; 1 μM Tg treated for 6 hours followed by 150 μM IT-139 for 24 hours; and […] IT-139 for 24 hours followed by […] Tg treatment for 24 hours for lanes 1-5, respectively. Lanes 6-12 are the same treatments incubated for a further 24 hours.
Example 11. […] In vitro ASPC20 cells are treated for 48 hours with DMSO (control), 150 μM IT-139, 5 μM gemcitabine, simultaneous 150 μM IT-139 and 5 μM gemcitabine, 5 μM gemcitabine for 24 hours followed by 150 μM IT-139, or 150 μM IT-139 followed by 24 hrs 5 μM gemcitabine. Cells are harvested and counted by trypan blue to calculate the number of dead cells versus viable cells. […] PANC-1 cells are treated in vitro for 48 hours with DMSO (control), 150 μM IT-139, 5 μM gemcitabine, simultaneous 150 μM IT-139 and 5 μM gemcitabine, 5 μM gemcitabine for 24 hours followed by 150 μM IT-139, and 150 μM IT-139 followed by 24 hours 5 μM gemcitabine.

[18] = tested on: UPR (XBP-1 spliced form, ATF6, eIF2a); test: Effect on other arms of the UPR; type: cell-based
[19] = tested on: GRP78 promoter fragment (−169 to −29; contains 3 ERSEs); test: GRP78 promoter fragment luciferase reporter; type: cell-based
[20] = tested on: tumor types; test: Preclinical anti-tumor and combination studies
[21] = stressed cells (thapsigargin 300 nM)
[22] = Tu-stressed HCT116 cells (1.5 μg/mL tunicamycin)

[Cl][Ru-]([Cl])([Cl])[Cl].[Na+].c1ccc2[nH]ncc2c1.c1ccc2[nH]ncc2c1 [IT-139, sodium trans-[tetrachlorobis(1H-indazole)ruthenate(III)]]
effect on GRP78 protein (western blot, normalized by GAPDH) [1, 21]: decreased the amount of GRP78 | effect on GRP78 protein (western blot, normalized by GAPDH) ([1]; unstressed cells): little to no effect | effect on GRP78 mRNA expression (qRT-PCR, normalized to GAPDH) [2, 21]: decreased the amount of GRP78 mRNA expression | effect on grp78 mRNA levels (qRT-PCR, normalized to GAPDH) ([2]; unstressed cells): little impact | anti-tumor activity (tumor volume) [3]: demonstrated anti-tumor activity | cell morphology by electron microscopy [4]: significant vacuolization, ER expansion and disorganization of intracellular organelles | Polymerase II binding to the Pol II promoter, reduced to [5, 22]: 40% | Polymerase II binding to the Pol II promoter ([5]; non-stressed HCT116 cells): minimal effect | Polymerase II binding to the Grp78 promoter, dropped to [6, 22]: zero | Polymerase II binding to the Grp78 promoter, dropped to ([6]; non-stressed HCT116 cells): zero | GRP78 immunostaining of tumors [7]: very weak staining | effect on basal GRP78 levels ([8]; non-stressed normal cells): does not effect the basal GRP78 levels | effect on GRP78 up-regulation due to stress ([8]; stressed normal cells): does not effect GRP78 up-regulation due to stress | suppression of GRP78 at the transcriptional level (Northern blot, normalized against β-actin) [9]: dose dependent manner | mitochondrial potential (JC-1) [10]: increased loss of mitochondrial potential | mitochondrial potential (JC-1) [11]: increased loss of mitochondrial potential | mitochondrial potential (JC-1) [12]: increase in mitochondrial depolarization at high concentrations | mitochondrial potential (JC-1) [13]: increase in mitochondrial depolarization at high concentrations | mitochondrial potential (JC-1) [14]: increase in mitochondrial depolarization at high concentrations | cell viability [15]: did not show any effect upon cell viability | cell death in MiaPaca2 cells [16]: increased cell death | effect of order of dosing with thapsigargin (Tg) on GRP78 expression [17]: affects levels of GRP78 expression | effect on other arms of the UPR (induction XBP-1 spliced form; induction, processing and nuclear import of ATF6; phosphorylation of eIF2a) [18]: does not block other arms of the UPR | stress-induction of GRP78 promoter fragment linked to luciferase reporter gene [19]: suppress stress-induction | synergy in combination with other anti-cancer drugs ([20]; all different classes of anti-cancer drugs tested to date): marked synergy | anti-tumor activity in preclinical studies ([20]; including tumor types resistant to standard anti-cancer agents): activity against a broad range of tumor types
